Laboratory results published in ChEMBL document CHEMBL1201862, “PubChem BioAssay data set” (2004).
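Following 48 hours of exposure in 96-well plates, responses at five concentrations were used to interpolate endpoints linearly. GI50 marks 50% less growth.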 Activity calls are given as the source filed them. Rule as the data show it: active = GI50 up to about 1.1 µM and inactive = higher.

What was measured:
Test in all cases: growth of human tumour cells (NCI), 48 h
786-0 = tested on: 786-0
A498 = tested on: A498
CAKI-1 = tested on: CAKI-1
COLO 205 = tested on: COLO 205
HCT-15 = tested on: HCT-15
HOP-92 = tested on: HOP-92
K562 = tested on: K562
LOX IMVI = tested on: LOX IMVI
MOLT-4 = tested on: MOLT-4
NCI-H522 = tested on: NCI-H522
OVCAR-3 = tested on: OVCAR-3
RXF 393 = tested on: RXF 393
SF-539 = tested on: SF-539
SK-OV-3 = tested on: SK-OV-3
SNB-19 = tested on: SNB-19
SR = tested on: SR
TK-10 = tested on: TK-10
UACC-62 = tested on: UACC-62
PC-3 = tested on: PC-3
DU-145 = tested on: DU-145

CCC(C)C(N)C(=O)NC(CC(N)=O)C(=O)NC(CC(C)C)C(=O)NC(CCCCN)C(=O)NC(C)C(=O)NC(CC(C)C)C(=O)NC(C)C(=O)NC(C)C(=O)NC(CC(C)C)C(=O)NC(C)C(=O)NC(CCCCN)C(=O)NC(CCCCN)C(=O)NC(C(=O)NC(CC(C)C)C(N)=O)C(C)CC (stereo unspecified)
GI50 (786-0): 6.56 µM (inactive) | GI50 (A498): 17.9 µM (inactive) | GI50 (CAKI-1): 8.3 µM (inactive) | GI50 (COLO 205): 16.1 µM (inactive) | GI50 (HCT-15): 16.6 µM | GI50 (HOP-92): 1.14 µM (inactive) | GI50 (K562): 14.7 µM (inactive) | GI50 (LOX IMVI): 18.3 µM (inactive) | GI50 (MOLT-4): 14.9 µM (inactive) | GI50 (NCI-H522): 16.7 µM (inactive) | GI50 (OVCAR-3): 8 µM (inactive) | GI50 (RXF 393): 8.61 µM (inactive) | GI50 (SF-539): 6.08 µM (inactive) | GI50 (SK-OV-3): 18.7 µM (inactive) | GI50 (SNB-19): 14.7 µM (inactive) | GI50 (SR): 19 µM (inactive) | GI50 (TK-10): 14.2 µM (inactive) | GI50 (UACC-62): 6.64 µM (inactive)

COc1ccc(-c2cc(-c3cc(C)ccc3O)nc(O)n2)cc1
GI50 (786-0): 62.5 µM (inactive) | GI50 (A498): 74.6 µM (inactive) | GI50 (CAKI-1): > 100 µM (inactive) | GI50 (COLO 205): > 100 µM (inactive) | GI50 (HOP-92): 32.6 µM (inactive) | GI50 (K562): > 100 µM (inactive) | GI50 (LOX IMVI): > 100 µM (inactive) | GI50 (MOLT-4): > 100 µM (inactive) | GI50 (NCI-H522): 24.6 µM (inactive) | GI50 (OVCAR-3): > 100 µM (inactive) | GI50 (RXF 393): 32.6 µM (inactive) | GI50 (SF-539): 30.1 µM (inactive) | GI50 (SK-OV-3): 44.4 µM (inactive) | GI50 (SNB-19): 47 µM (inactive) | GI50 (SR): > 100 µM (inactive) | GI50 (TK-10): 40.8 µM (inactive) | GI50 (UACC-62): > 100 µM (inactive)

COC(=O)C(CC(=O)Nc1ccc(C)cc1)C(=O)C(=O)Nc1ccccc1C(C)C (stereo unspecified)
GI50 (786-0): > 100 µM (inactive) | GI50 (A498): > 100 µM (inactive) | GI50 (CAKI-1): > 100 µM (inactive) | GI50 (COLO 205): 89.7 µM (inactive) | GI50 (HCT-15): > 100 µM | GI50 (HOP-92): > 100 µM (inactive) | GI50 (K562): > 100 µM (inactive) | GI50 (LOX IMVI): > 100 µM (inactive) | GI50 (MOLT-4): > 100 µM (inactive) | GI50 (NCI-H522): > 100 µM (inactive) | GI50 (OVCAR-3): > 100 µM (inactive) | GI50 (RXF 393): > 100 µM (inactive) | GI50 (SF-539): > 100 µM (inactive) | GI50 (SK-OV-3): > 100 µM (inactive) | GI50 (SNB-19): > 100 µM (inactive) | GI50 (SR): > 100 µM (inactive) | GI50 (TK-10): > 100 µM (inactive) | GI50 (UACC-62): > 100 µM (inactive)

O=C(O)CCCc1ccc2c(c1)CC1(C2)Cc2cc3c(cc2C1)CCCC3
GI50 (786-0): 28.6 µM (inactive) | GI50 (A498): 17.1 µM (inactive) | GI50 (COLO 205): 19.9 µM (inactive) | GI50 (HCT-15): 8.3 µM | GI50 (HOP-92): 23.7 µM (inactive) | GI50 (K562): 11.2 µM (inactive) | GI50 (LOX IMVI): 17.7 µM (inactive) | GI50 (MOLT-4): 1.52 µM (inactive) | GI50 (NCI-H522): 19.2 µM (inactive) | GI50 (OVCAR-3): 19.3 µM (inactive) | GI50 (PC-3): 24.6 µM (inactive) | GI50 (RXF 393): 13.2 µM (inactive) | GI50 (SF-539): 2.06 µM (inactive) | GI50 (SK-OV-3): 24.7 µM (inactive) | GI50 (SR): 18.4 µM (inactive) | GI50 (TK-10): 42.7 µM (inactive) | GI50 (UACC-62): > 100 µM (inactive)

Clc1cc(Cc2cc(Cl)c(Cl)c3c2OCOC3)c2c(c1Cl)COCO2
GI50 (786-0): 25.1 µM (inactive) | GI50 (A498): 28.4 µM (inactive) | GI50 (CAKI-1): 22.3 µM (inactive) | GI50 (COLO 205): 70 µM (inactive) | GI50 (HCT-15): > 100 µM | GI50 (HOP-92): 16.9 µM (inactive) | GI50 (K562): 43.9 µM (inactive) | GI50 (LOX IMVI): 53.1 µM (inactive) | GI50 (MOLT-4): 56.2 µM (inactive) | GI50 (NCI-H522): 41.9 µM (inactive) | GI50 (OVCAR-3): 25.3 µM (inactive) | GI50 (RXF 393): 31.7 µM (inactive) | GI50 (SF-539): 17.8 µM (inactive) | GI50 (SK-OV-3): 23.3 µM (inactive) | GI50 (SNB-19): 38 µM (inactive) | GI50 (SR): 55.2 µM (inactive) | GI50 (TK-10): 29.9 µM (inactive) | GI50 (UACC-62): 49.1 µM (inactive)

NC(=S)NNC(=O)/C(=C/c1ccc(/C=C(\NC(=O)c2ccccc2)C(=O)NNC(N)=S)cc1)NC(=O)c1ccccc1
GI50 (786-0): > 100 µM (inactive) | GI50 (A498): > 100 µM (inactive) | GI50 (CAKI-1): > 100 µM (inactive) | GI50 (COLO 205): > 100 µM (inactive) | GI50 (HCT-15): > 100 µM | GI50 (HOP-92): > 100 µM (inactive) | GI50 (K562): 19.1 µM (inactive) | GI50 (LOX IMVI): 34.1 µM (inactive) | GI50 (MOLT-4): 13.8 µM (inactive) | GI50 (NCI-H522): 25.4 µM (inactive) | GI50 (OVCAR-3): > 100 µM (inactive) | GI50 (RXF 393): > 75 µM (inactive) | GI50 (SF-539): > 100 µM (inactive) | GI50 (SK-OV-3): > 100 µM (inactive) | GI50 (SNB-19): > 100 µM (inactive) | GI50 (SR): 26.1 µM (inactive) | GI50 (TK-10): > 100 µM (inactive) | GI50 (UACC-62): > 100 µM (inactive)

CCCCCCCCCCNC(=S)OCCCC
GI50 (786-0): 29.1 µM (inactive) | GI50 (A498): 25.6 µM (inactive) | GI50 (CAKI-1): 25.8 µM (inactive) | GI50 (HCT-15): 19.2 µM | GI50 (HOP-92): 16.7 µM (inactive) | GI50 (K562): 18.5 µM (inactive) | GI50 (LOX IMVI): 15.9 µM (inactive) | GI50 (MOLT-4): 14.7 µM (inactive) | GI50 (NCI-H522): 18.6 µM (inactive) | GI50 (RXF 393): 34.9 µM (inactive) | GI50 (SF-539): 21.7 µM (inactive) | GI50 (SK-OV-3): 30 µM (inactive) | GI50 (SNB-19): 46.8 µM (inactive) | GI50 (SR): 17.4 µM (inactive) | GI50 (TK-10): 14.7 µM (inactive) | GI50 (UACC-62): 22.5 µM (inactive)

NC(=S)N/N=C1\C(=O)C=C(Nc2ccc(Cl)cc2Cl)c2ccccc21
GI50 (786-0): 7.85 µM (inactive) | GI50 (A498): 23.3 µM (inactive) | GI50 (CAKI-1): 15.8 µM (inactive) | GI50 (COLO 205): 35.9 µM (inactive) | GI50 (DU-145): 96.6 µM (inactive) | GI50 (HCT-15): 31.1 µM | GI50 (HOP-92): 15.8 µM (inactive) | GI50 (LOX IMVI): 25.3 µM (inactive) | GI50 (MOLT-4): 51.2 µM (inactive) | GI50 (OVCAR-3): 21.3 µM (inactive) | GI50 (RXF 393): 18.6 µM (inactive) | GI50 (SF-539): 7.38 µM (inactive) | GI50 (SK-OV-3): 12.4 µM (inactive) | GI50 (SNB-19): 25.5 µM (inactive) | GI50 (TK-10): 32.4 µM (inactive) | GI50 (UACC-62): 2.64 µM (inactive)

CC1=Nc2c(ccc3c2C(=O)c2ccccc2C3=O)NC(c2cccc3c2CCC3)C1 (stereo unspecified)
GI50 (786-0): > 100 µM (inactive) | GI50 (A498): > 67.3 µM (inactive) | GI50 (CAKI-1): 6.27 µM (inactive) | GI50 (COLO 205): > 100 µM (inactive) | GI50 (HCT-15): 18.7 µM | GI50 (HOP-92): > 65 µM (inactive) | GI50 (K562): 21.4 µM (inactive) | GI50 (LOX IMVI): 24.2 µM (inactive) | GI50 (MOLT-4): 5.11 µM (inactive) | GI50 (NCI-H522): > 23.1 µM (inactive) | GI50 (OVCAR-3): > 90.4 µM (inactive) | GI50 (RXF 393): > 100 µM (inactive) | GI50 (SF-539): > 100 µM (inactive) | GI50 (SK-OV-3): > 31 µM (inactive) | GI50 (SNB-19): > 100 µM (inactive) | GI50 (SR): 11 µM (inactive) | GI50 (TK-10): > 100 µM (inactive) | GI50 (UACC-62): > 100 µM (inactive)

Cc1ccc(C(=O)Nc2ccc(S(=O)(=O)O)c3cc(S(=O)(=O)O)cc(S(=O)(=O)O)c23)cc1NC(=O)c1cccc(N)c1
GI50 (786-0): > 100 µM (inactive) | GI50 (A498): > 100 µM (inactive) | GI50 (CAKI-1): > 100 µM (inactive) | GI50 (COLO 205): > 100 µM (inactive) | GI50 (HCT-15): > 100 µM | GI50 (K562): > 100 µM (inactive) | GI50 (MOLT-4): > 100 µM (inactive) | GI50 (NCI-H522): > 100 µM (inactive) | GI50 (OVCAR-3): > 100 µM (inactive) | GI50 (PC-3): > 100 µM (inactive) | GI50 (RXF 393): > 100 µM (inactive) | GI50 (SF-539): > 100 µM (inactive) | GI50 (SK-OV-3): > 100 µM (inactive) | GI50 (SNB-19): > 100 µM (inactive) | GI50 (SR): > 100 µM (inactive) | GI50 (TK-10): > 100 µM (inactive) | GI50 (UACC-62): > 100 µM (inactive)

C[C@]12C=CC(=O)C=C1CC[C@H]1[C@@H]3C[C@@H](O)[C@](O)(C(=O)CO)[C@@]3(C)C[C@H](O)[C@@]12F [TRIAMCINOLONE]
GI50 (786-0): > 100 µM (inactive) | GI50 (A498): > 100 µM (inactive) | GI50 (CAKI-1): > 100 µM (inactive) | GI50 (COLO 205): > 100 µM (inactive) | GI50 (HCT-15): > 100 µM | GI50 (HOP-92): > 100 µM (inactive) | GI50 (K562): > 100 µM (inactive) | GI50 (LOX IMVI): > 100 µM (inactive) | GI50 (MOLT-4): > 100 µM (inactive) | GI50 (NCI-H522): > 100 µM (inactive) | GI50 (OVCAR-3): > 100 µM (inactive) | GI50 (RXF 393): > 100 µM (inactive) | GI50 (SF-539): > 100 µM (inactive) | GI50 (SK-OV-3): > 100 µM (inactive) | GI50 (SNB-19): > 100 µM (inactive) | GI50 (SR): > 100 µM (inactive) | GI50 (TK-10): > 100 µM (inactive) | GI50 (UACC-62): > 100 µM (inactive)
